Experimental data as given in patent publication US12370235B2, “Synthetic, non-natural antimicrobial peptides inspired by Staphylococcus auricularis delta toxin” (University of Saskatchewan, priority 2021, dated 2025).
Converted amounts (≈) assume the structure as drawn. Square brackets hold non-standard residues; d marks the D form. Ends that are not written are not given here. Peptide text beside a SMILES is read from it. Orn = NCCC[C@H](N)C(=O)O

Legend:
[1] = test system: Mannheimia haemolytica ATCC 33393; assay: MIC, broth dilution; format: cell-based
Description: (§1) MIC determination. MICs were measured using peptides with 95% purity. For bacterial studies, cation-adjusted Mueller Hinton (MH) broth was used as the growth medium whereas Yeast Peptone Dextrose (YPD; 10 g/L yeast extract, 20 g/L peptone, 20 g/L dextrose) was used for Candida spp. and other yeast. Microorganisms were diluted to an optical density of […] in MH or YPD broth and a 180 μl volume was mixed with 20 μl of peptide arrayed as a 2-fold dilution series in a flat-bottom 96-well microtitre plate. A control was performed using 20 μl of sterile water. Plates were incubated as standing cultures overnight at 37° C.
(§2) Determination of minimum inhibitory concentrations. The MICs were measured for bioactive peptides identified from the initial screen. For bacterial studies, cation-adjusted Mueller Hinton (MH) broth was used as the growth medium whereas YPD was used for C. albicans. Bacterial cultures were diluted to a OD value of 6×10^−4 in MH broth and a 180 μl volume was mixed with 20 μl of peptide arrayed as 2-fold dilution series in a 96-well plate. For the positive control, 20 μl of sterile water was used. Plates were incubated as standing cultures overnight at 37° C. The lowest peptide concentration that resulted no observed microbial growth after an overnight treatment was defined as the MIC.
The ability of STIP3 variants to inhibit the growth of Mannheimia haemolytica ATCC 33393 was evaluated. This included an alanine scan of STIP3-1 (FIG. 8 & Table 10) as well as 30 rationally-designed STIPs that were evaluated in the preceding Examples against other pathogens (Table 11). Substitutions at a greater number of sites were tolerated in the context of antimicrobial activity. Moreover, the inclusion of basic natural and unnatural amino acids (e.g. lysine, ornithine, and arginine) at positions 3, 4 and 11 (i.e. X1, X2, and X4 of SEQ ID NO: 32) to afford a more uniformly cationic peptide increased activity against M. haemolytica.

[2] = test system: Candida krusei AR 397; assay: MIC, YPD broth, CDC and FDA AR Candida isolate panel; format: cell-based; settings: Table 9 below the line: only 200 or 100 μg/mL tested; values reported as 100 are ≤100 μg/mL
Description: as §1

[3] = test system: Candida haemulonii AR 395; assay: as above; format: cell-based; settings: Table 9 below the line: only 200 or 100 μg/mL tested; values reported as 100 are ≤100 μg/mL
Description: as §1

[4] = test system: Saccharomyces cerevisiae AR 399; assay: as above; format: cell-based; settings: Table 9 below the line: only 200 or 100 μg/mL tested; values reported as 100 are ≤100 μg/mL
Description: as §1

[5] = test system: Candida haemulonii AR 393; assay: as above; format: cell-based; settings: Table 9 below the line: only 200 or 100 μg/mL tested; values reported as 100 are ≤100 μg/mL
Description: as §1

[6] = test system: Candida lusitaniae AR 398; assay: as above; format: cell-based; settings: Table 9 below the line: only 200 or 100 μg/mL tested; values reported as 100 are ≤100 μg/mL
Description: as §1

[7] = test system: Candida duobushaemulonii AR 391; assay: as above; format: cell-based; settings: Table 9 below the line: only 200 or 100 μg/mL tested; values reported as 100 are ≤100 μg/mL
Description: as §1

[8] = test system: Saccharomyces cerevisiae AR 400; assay: as above; format: cell-based; settings: Table 9 below the line: only 200 or 100 μg/mL tested; values reported as 100 are ≤100 μg/mL
Description: as §1

[9] = test system: Kodamae ohmeri AR 396; assay: as above; format: cell-based; settings: Table 9 below the line: only 200 or 100 μg/mL tested; values reported as 100 are ≤100 μg/mL
Description: as §1

[10] = test system: Candida duobushaemulonii AR 394; assay: as above; format: cell-based; settings: Table 9 below the line: only 200 or 100 μg/mL tested; values reported as 100 are ≤100 μg/mL
Description: as §1

[11] = test system: Candida duobushaemulonii AR 392; assay: as above; format: cell-based; settings: Table 9 below the line: only 200 or 100 μg/mL tested; values reported as 100 are ≤100 μg/mL
Description: as §1

[12] = test system: C. albicans MYA-2876; assay: MIC, YPD broth; format: cell-based, Candida albicans; settings: Table 8
Description: as §1, §2

[13] = test system: S. aureus ATCC 33592 (MRSA SCCmec type III); assay: MIC, broth dilution; format: cell-based, Staphylococcus aureus; settings: Table 5; STIP3 variants, highest concentration 100 μg/mL
Description: as §1, §2

[14] = test system: S. aureus ATCC BAA-42 (MRSA SCCmec type VI); assay: MIC, broth dilution; format: cell-based, Staphylococcus aureus; settings: Table 5; STIP3 variants, highest concentration 100 μg/mL
Description: as §1, §2

[15] = test system: S. aureus ATCC 29213; assay: MIC, broth dilution; format: cell-based, Staphylococcus aureus; settings: for MIC (μg/mL) S. aureus: liquid broth
Description: as §1, §2

[16] = test system: S. aureus ATCC BAA-2313 (MRSA SCCmec type XI); assay: MIC, broth dilution; format: cell-based, Staphylococcus aureus; settings: Table 5; STIP3 variants, highest concentration 100 μg/mL
Description: as §1, §2

[17] = test system: S. aureus ATCC BAA-41 (MRSA SCCmec type II); assay: MIC, broth dilution; format: cell-based, Staphylococcus aureus; settings: Table 5; STIP3 variants, highest concentration 100 μg/mL
Description: as §1, §2

[18] = test system: S. aureus ATCC BAA-2094 (MRSA SCCmec type V); assay: MIC, broth dilution; format: cell-based, Staphylococcus aureus; settings: Table 5; STIP3 variants, highest concentration 100 μg/mL
Description: as §1, §2

[19] = test system: S. aureus ATCC BAA-44 (MRSA SCCmec type I); assay: MIC, broth dilution; format: cell-based, Staphylococcus aureus; settings: Table 5; STIP3 variants, highest concentration 100 μg/mL
Description: as §1, §2

[20] = test system: S. aureus ATCC BAA-1683 (MRSA SCCmec type IV); assay: MIC, broth dilution; format: cell-based, Staphylococcus aureus; settings: Table 5; STIP3 variants, highest concentration 100 μg/mL
Description: as §1, §2

[21] = test system: M. luteus ATCC 4698; assay: MIC, broth dilution; format: cell-based, Micrococcus luteus; settings: Table 4; liquid broth
Description: as §1, §2

| Compound | MIC (μg/mL) M. haemolytica ([1]; Table 10, liquid broth) | MIC (μg/mL) S. aureus ([15]; Table 4) | MIC (μg/mL) S. aureus ([15]; Table 10) | MIC (μg/mL) M. luteus [21] [µg/mL] | also measured |
| --- | --- | --- | --- | --- | --- |
| CC[C@H](C)[C@H](NC(=O)[C@H](Cc1c[nH]c2ccccc12)NC(=O)[C@H](CCCN)NC(=O)[C@@H](NC(=O)[C@H](CC(C)C)NC(=O)[C@H](C)NC(=O)[C@H](CCCN)NC(=O)[C@@H](NC(=O)[C@@H](N)[C@@H](C)O)C(C)C)C(C)C)C(=O)N[C@@H](CC(C)C)C(=O)N[C@@H](CCCN)C(=O)N[C@H](C(=O)N[C@H](C(=O)N[C@@H](C)C(=O)N[C@@H](CCCN)C(=O)N[C@@H](Cc1ccccc1)C(=O)N[C@@H](C)C(=O)O)C(C)C)[C@@H](C)O [STIP3-22, TVXALVXWILXTVAXFA] (H-TV[Orn]ALV[Orn]WIL[Orn]TVA[Orn]FA-OH; N-terminus and C-terminus assumed) | – | – | – | – | MIC (μg/mL) M. haemolytica ([1]; Table 11, highest concentration 25 μg/mL): 6.25 µg/mL (≈ 3.36 µM); MIC (μg/mL) Candida krusei AR 397 [2]: ≤ 100 µg/mL; MIC (μg/mL) Candida haemulonii AR 395 [3]: > (values below the line were determined using two concentrations of peptide 200 or 100 μg/mL); MIC (μg/mL) Saccharomyces cerevisiae AR 399 [4]: ≤ 100 µg/mL; MIC (μg/mL) Candida haemulonii AR 393 [5]: > (values below the line were determined using two concentrations of peptide 200 or 100 μg/mL); MIC (μg/mL) Candida lusitaniae AR 398 [6]: ≤ 100 µg/mL; MIC (μg/mL) Candida duobushaemulonii AR 391 [7]: > (values below the line were determined using two concentrations of peptide 200 or 100 μg/mL); MIC (μg/mL) Saccharomyces cerevisiae AR 400 [8]: ≤ 100 µg/mL; MIC (μg/mL) Kodamae ohmeri AR 396 [9]: > (values below the line were determined using two concentrations of peptide 200 or 100 μg/mL); MIC (μg/mL) Candida duobushaemulonii AR 394 [10]: > (values below the line were determined using two concentrations of peptide 200 or 100 μg/mL); MIC (μg/mL) Candida duobushaemulonii AR 392 [11]: > (values below the line were determined using two concentrations of peptide 200 or 100 μg/mL); MIC C. albicans MYA-2876 [12]: > (> symbol indicates that no inhibition was observed at the highest concentration of peptide tested: 100 μg/mL); MIC S. aureus ATCC 33592 (III) [13]: 25 µg/mL (≈ 13.4 µM); MIC S. aureus ATCC BAA 42 (VI) [14]: 25 µg/mL (≈ 13.4 µM); MIC S. aureus ATCC 29213 ([15]; Table 5, STIP3 variants, highest concentration 100 μg/mL): 25 µg/mL (≈ 13.4 µM); MIC S. aureus ATCC BAA 2313 (XI) [16]: 100 µg/mL (≈ 53.8 µM); MIC S. aureus ATCC BAA 41 (II) [17]: 25 µg/mL (≈ 13.4 µM); MIC S. aureus ATCC BAA 2094 (V) [18]: 25 µg/mL (≈ 13.4 µM); MIC S. aureus ATCC BAA 44 (I) [19]: 25 µg/mL (≈ 13.4 µM); MIC S. aureus ATCC BAA 1683 (IV) [20]: 25 µg/mL (≈ 13.4 µM) |
| TAGGLVKWILDTVKKFA [V2A, TAGGLVKWILDTVKKFA] | 100 µg/mL | > (> = >200 μg/mL (maximum concentration tested)) | > (the use of > indicates an MIC > 200 μg/mL; the maximum concentration tested) | 50 | – |
| TVGGAVKWILDTVKKFA [L5A, TVGGAVKWILDTVKKFA] | > (the use of > indicates an MIC > 200 μg/mL; the maximum concentration tested) | > (> = >200 μg/mL (maximum concentration tested)) | > (the use of > indicates an MIC > 200 μg/mL; the maximum concentration tested) | 100 | – |
| TVGGLAKWILDTVKKFA [V6A, TVGGLAKWILDTVKKFA] | 100 µg/mL | > (> = >200 μg/mL (maximum concentration tested)) | > (the use of > indicates an MIC > 200 μg/mL; the maximum concentration tested) | 50 | – |
| TVGGLVAWILDTVKKFA [K7A, TVGGLVAWILDTVKKFA] | > (the use of > indicates an MIC > 200 μg/mL; the maximum concentration tested) | > (> = >200 μg/mL (maximum concentration tested)) | > (the use of > indicates an MIC > 200 μg/mL; the maximum concentration tested) | 200 | – |
| TVGGLVKAILDTVKKFA [W8A, TVGGLVKAILDTVKKFA] | 200 µg/mL | > (> = >200 μg/mL (maximum concentration tested)) | > (the use of > indicates an MIC > 200 μg/mL; the maximum concentration tested) | 100 | – |
| TVGGLVKWALDTVKKFA [I9A, TVGGLVKWALDTVKKFA] | > (the use of > indicates an MIC > 200 μg/mL; the maximum concentration tested) | > (> = >200 μg/mL (maximum concentration tested)) | > (the use of > indicates an MIC > 200 μg/mL; the maximum concentration tested) | 200 | – |
| TVGGLVKWIADTVKKFA [L10A, TVGGLVKWIADTVKKFA] | 200 µg/mL | > (> = >200 μg/mL (maximum concentration tested)) | > (the use of > indicates an MIC > 200 μg/mL; the maximum concentration tested) | 200 | – |
